Series [1] is described as follows: In vivo metabolism of [18F]17 and uptake of [18F]10. More on the design: species or system CD1 mice. The following applies: for tissue uptake at 0.5 h / tissue uptake at 1 h: mouse, iv, after i.v. 100 to 200 kBq [18F]17, female CD1 mice. As for the experimental part:
The total amount of activity measured in, e.g. the plasma at particular times p.i. also depends on the kinetics of the excretion of radiotracer/radiometabolites. For [^18F]2, this is more pronounced than for [^18F]1 with unmetabolized [^18F]2 accounting for only 2% of the total radioactivity in the plasma at 30 min p.i. At this time, more than 90% of the recovered activity in plasma samples for [^18F]2 consisted of the single radiometabolite M1b. As this value decreases only slightly up to 60 min p.i. (88%), M1b can be assumed as a rather metabolically stable compound. This radiometabolite of [^18F]2 probably corresponds to the N-aryl-oxadiazolyl-propanoic acid resulting from enzymatic hydrolysis of the amide bond of 2[40]. […] In order introduce ^18F into the molecule, the carbon acid moiety was protected as a methyl ester resulting in the labelled compound [^18F]17 (Scheme 5). It was expected that after injection of this compound in mice, the ester will be converted into the free acid [^18F]10. […] After intravenous injection of [^18F]17 in CD1 mice, samples of the plasma, brain, and spleen were analyzed at 30 and 60 min p.i. (Table 5).
(§1) [^18F]1 and [^18F]2 (100 to 150 MBq, 250 to 450 GBq/μmol in 150 μL NaCl 0.9%/10% EtOH) were injected via the tail vein in CD1 male mice (10 to 12 weeks old, 20 to 25 g). Blood and urine samples were obtained at 30 and 60 min p.i. (n = 3 per time point). Twofold extractions of plasma and brain samples (n = 3) were performed using ice-cold MeCN according to the standard protocol established in our group (see [47, 48]). Briefly, plasma samples were obtained by centrifugation of the blood at 4,000×g at 4°C for 10 min, and brain samples were homogenized in ice-cold 50 mM Tris–HCl (pH = 7.4). The samples were vortexed, incubated on ice, and centrifuged at 10,000×g for 3 min. Supernatants were collected, and the precipitates were re-dissolved in ice-cold MeCN for the second extraction. The supernatants from the two extractions were combined, concentrated under a gentle argon stream at 65°C, and analyzed by radio-TLC and gradient analytical HPLC (see ‘Radiochemistry’ section). Aliquots from each extraction supernatant and the precipitates were also taken and quantified by γ counting (Wallac Wizard 1470, Perkin Elmer Inc., Waltham, MA, USA) along with the respective aliquots of intact plasma samples and brain homogenates. A moderate recovery of radioactivity was obtained from plasma samples and brain homogenates (60% to 70%). Radiometabolites of [^18F]17 in the plasma, spleen, and brain were assessed at 30 and 60 min p.i.

Series [2] in a line: Ex vivo metabolite studies (radio-HPLC of plasma and brain extracts). The format is in vivo, CD1 mice. The following applies: mice. On the procedure:
as §1

The text below walks through data of PMC3856494, “Radiofluorination and biological evaluation of N-aryl-oxadiazolyl-propionamides as potential radioligands for PET imaging of cannabinoid CB2 receptors” (Organic and Medicinal Chemistry Letters, 2013).

Where two headings read alike, the source gives them in different places.

The melting point is the temperature, or range, at which the solid turns liquid.

As for `CCn1c2ccccc2c2cc(NC(=O)CCc3nc(-c4ccc([N+](C)(C)C)cc4Br)no3)ccc21.[I-]` [Compound 13, 3-Bromo-4-(5-(3-((9-ethyl-9H-carbazol-3-yl)amino)-3-oxopropyl)-1,2,4-oxadiazol-3-yl)-N,N,N-trimethylbenzenaminium iodide], the melting point was 109 °C.

`Cc1ccc(S(=O)(=O)OCCn2c3ccccc3c3cc(NC(=O)CCc4nc(-c5ccc(F)cc5Br)no4)ccc32)cc1` [Compound 15, [2-(3-{3-[3-(2-Bromo-4-fluorophenyl)-1,2,4-oxadiazol-5-yl]propanamido}-9H-carbazol-9-yl)ethyl] 4-methylbenzenesulfonate]: the melting point was 136 °C.

In the case of `COC(=O)CCc1nc(-c2ccc(F)cc2Br)no1` [Compound 17, Methyl-3-(3-(2-bromo-4-fluorophenyl)-1,2,4-oxadiazol-5-yl)propanoate], the melting point is 39 °C.

Compound `COC(=O)CCc1nc(-c2ccc([N+](C)(C)C)cc2Br)no1.[I-]` [Compound 18, 3-Bromo-4-(5-(3-methoxy-3-oxopropyl)-1,2,4-oxadiazol-3-yl)-N,N,N-trimethylbenzenaminium iodide] gave a melting point of 119 °C.

On to `O=C(O)CCc1nc(-c2ccc([18F])cc2Br)no1` [[^18F]10], for which the tissue uptake at 0.5 h in series [1] (brain, read-out: uptake, Brain, 30 min p.i.) was found to be 0.28 %ID/g; in series [1] (plasma, read-out: uptake, Plasma, 30 min p.i.), 18.2 %ID/g; in series [1] (spleen, read-out: uptake, Spleen, 30 min p.i.) it was 1.35 %ID/g. In addition, the tissue uptake at 1 h in series [1] (brain, read-out: uptake, Brain, 60 min p.i.) amounted to 0.29 %ID/g; in series [1] (plasma, read-out: uptake, Plasma, 60 min p.i.) it was 15.4 %ID/g; in series [1] (spleen, read-out: uptake, Spleen, 60 min p.i.), 1.31 %ID/g. For the same compound, the “Further metabolic transformation in brain and spleen samples” value in series [1] (up to 60 min p.i. of [18F]17, CD1 mice) was “no further metabolic transformation”. In addition, the “Percentage of total activity in brain samples, 30 min p.i.” value in series [2] (brain homogenate extract, 30 min p.i. of [18F]1 or [18F]2, radio-HPLC) is 8%. For the same compound, the “Percentage of total activity in brain samples, 60 min p.i.” value in series [2] (brain homogenate extract, 60 min p.i. of [18F]1 or [18F]2, radio-HPLC) is reported as 51%. In addition, the “Relative percentage of intact tracer and radiometabolites, Plasma 60 min p.i.” value in series [2] (plasma, 60 min p.i. of [18F]1 or [18F]2, radio-HPLC) is given as 88%.

In the case of `COC(=O)CCc1nc(-c2ccc([18F])cc2Br)no1` [[^18F]17], in series [1] (plasma, 30 min p.i., i.v., CD1 mice), the “Conversion to free acid [18F]10 in plasma samples” value is recorded as “completely converted”.
